Assay results published in ChEMBL document CHEMBL5715260, “Selectivity Literature for EUbOPEN Chemogenomic Library” (2024).
Where a SMILES comes first, the peptide text is derived from it. [ ]: non-standard residue; d: D form. The star is where a group is joined. Lys(Me,2-norbornyl) = CN(CCCC[C@H](N)C(=O)O)C1CC2CCC1C2; Benzoyl(4-tBu) = CC(C)(C)c1ccc(C(=O)*)cc1; CH2Cl = ClC*

Columns and labels:
Design in all cases: recommended concentration 1 uM
[1] = target: Poly [ADP-ribose] polymerase 1 (Homo sapiens, UniProt P09874); assay: Selectivity interaction (Enzymatic assay) EUB0002249a PARP1
Poly [ADP-ribose] polymerase 1, sequence (P09874 whole entry): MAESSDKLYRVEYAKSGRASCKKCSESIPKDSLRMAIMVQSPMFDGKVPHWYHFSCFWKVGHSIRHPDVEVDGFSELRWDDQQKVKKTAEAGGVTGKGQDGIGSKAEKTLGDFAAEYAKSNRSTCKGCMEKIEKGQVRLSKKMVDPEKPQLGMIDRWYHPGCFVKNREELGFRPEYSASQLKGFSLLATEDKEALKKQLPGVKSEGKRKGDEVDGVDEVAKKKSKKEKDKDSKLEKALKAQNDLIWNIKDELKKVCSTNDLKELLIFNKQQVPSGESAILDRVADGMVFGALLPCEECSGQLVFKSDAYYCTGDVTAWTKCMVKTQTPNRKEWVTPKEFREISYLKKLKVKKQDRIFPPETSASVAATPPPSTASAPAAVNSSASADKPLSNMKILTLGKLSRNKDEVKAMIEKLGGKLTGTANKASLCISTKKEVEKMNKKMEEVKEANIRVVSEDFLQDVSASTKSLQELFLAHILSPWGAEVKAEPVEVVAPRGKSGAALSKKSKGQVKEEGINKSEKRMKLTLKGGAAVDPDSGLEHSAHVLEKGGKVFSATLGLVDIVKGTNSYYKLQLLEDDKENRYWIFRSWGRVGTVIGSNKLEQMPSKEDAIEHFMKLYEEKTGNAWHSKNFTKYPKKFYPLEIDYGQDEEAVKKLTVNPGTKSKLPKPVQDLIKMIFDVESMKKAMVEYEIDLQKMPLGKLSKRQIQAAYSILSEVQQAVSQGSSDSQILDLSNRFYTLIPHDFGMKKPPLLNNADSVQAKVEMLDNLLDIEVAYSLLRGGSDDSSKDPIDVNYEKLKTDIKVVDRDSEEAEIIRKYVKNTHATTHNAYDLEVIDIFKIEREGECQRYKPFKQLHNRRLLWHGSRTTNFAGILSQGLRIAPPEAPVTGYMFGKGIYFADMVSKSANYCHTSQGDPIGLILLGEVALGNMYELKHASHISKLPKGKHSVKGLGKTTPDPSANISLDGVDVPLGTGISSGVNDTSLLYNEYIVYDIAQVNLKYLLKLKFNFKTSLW

[2] = target: Poly [ADP-ribose] polymerase tankyrase-1 (Homo sapiens, UniProt O95271); assay: Selectivity interaction (Enzymatic assay) EUB0002249a TNKS1
Poly [ADP-ribose] polymerase tankyrase-1, sequence (O95271 whole entry): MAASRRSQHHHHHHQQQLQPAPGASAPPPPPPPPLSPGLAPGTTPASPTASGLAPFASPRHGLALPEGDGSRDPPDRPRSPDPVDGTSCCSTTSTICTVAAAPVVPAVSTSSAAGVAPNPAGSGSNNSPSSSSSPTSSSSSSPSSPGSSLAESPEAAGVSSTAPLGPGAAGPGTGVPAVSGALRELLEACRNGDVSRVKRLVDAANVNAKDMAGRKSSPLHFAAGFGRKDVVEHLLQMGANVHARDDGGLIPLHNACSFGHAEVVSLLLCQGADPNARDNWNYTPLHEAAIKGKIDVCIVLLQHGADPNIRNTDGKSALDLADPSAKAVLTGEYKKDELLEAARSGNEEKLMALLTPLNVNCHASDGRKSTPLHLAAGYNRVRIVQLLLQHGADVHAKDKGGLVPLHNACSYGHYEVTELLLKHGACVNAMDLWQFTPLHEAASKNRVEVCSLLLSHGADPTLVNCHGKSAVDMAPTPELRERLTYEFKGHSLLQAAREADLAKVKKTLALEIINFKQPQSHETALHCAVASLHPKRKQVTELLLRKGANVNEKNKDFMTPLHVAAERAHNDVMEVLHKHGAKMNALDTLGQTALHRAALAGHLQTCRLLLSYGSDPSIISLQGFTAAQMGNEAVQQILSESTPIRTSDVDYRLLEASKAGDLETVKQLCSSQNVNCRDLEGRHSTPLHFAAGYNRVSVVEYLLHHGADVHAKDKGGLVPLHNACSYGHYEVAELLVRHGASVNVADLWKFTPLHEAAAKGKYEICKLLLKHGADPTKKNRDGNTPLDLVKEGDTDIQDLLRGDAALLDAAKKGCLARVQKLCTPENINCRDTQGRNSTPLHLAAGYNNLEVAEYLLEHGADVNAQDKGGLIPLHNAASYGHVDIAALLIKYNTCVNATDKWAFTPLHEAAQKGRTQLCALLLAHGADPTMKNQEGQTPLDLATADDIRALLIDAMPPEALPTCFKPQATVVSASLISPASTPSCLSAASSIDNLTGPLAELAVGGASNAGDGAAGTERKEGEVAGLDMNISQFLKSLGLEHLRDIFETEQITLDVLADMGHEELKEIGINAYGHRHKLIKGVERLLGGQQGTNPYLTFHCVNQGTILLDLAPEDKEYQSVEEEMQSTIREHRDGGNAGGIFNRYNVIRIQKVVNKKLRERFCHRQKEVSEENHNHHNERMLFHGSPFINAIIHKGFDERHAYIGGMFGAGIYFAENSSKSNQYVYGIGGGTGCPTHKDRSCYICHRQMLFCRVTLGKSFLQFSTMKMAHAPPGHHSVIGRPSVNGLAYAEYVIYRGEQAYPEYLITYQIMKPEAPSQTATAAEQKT

[3] = target: Chromobox protein homolog 8 (Homo sapiens, UniProt Q9HC52); assay: Selectivity interaction (SPR) EUB0001090a CBX8
Chromobox protein homolog 8, sequence (Q9HC52 whole entry): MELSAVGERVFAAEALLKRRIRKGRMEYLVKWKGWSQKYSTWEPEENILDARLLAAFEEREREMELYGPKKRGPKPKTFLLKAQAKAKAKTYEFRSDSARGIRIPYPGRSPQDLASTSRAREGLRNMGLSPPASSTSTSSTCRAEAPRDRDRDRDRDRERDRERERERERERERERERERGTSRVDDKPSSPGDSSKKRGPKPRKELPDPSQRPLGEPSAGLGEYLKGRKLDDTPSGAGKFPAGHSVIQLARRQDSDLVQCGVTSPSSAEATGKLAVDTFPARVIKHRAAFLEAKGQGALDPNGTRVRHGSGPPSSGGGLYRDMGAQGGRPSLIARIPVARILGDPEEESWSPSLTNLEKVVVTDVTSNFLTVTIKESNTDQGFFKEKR

[4] = target: T1, Chromobox protein homolog 2 (Homo sapiens, UniProt Q14781); assay: Selectivity interaction (SPR) EUB0001090a CBX2
T1 sequence (Q14781 whole entry): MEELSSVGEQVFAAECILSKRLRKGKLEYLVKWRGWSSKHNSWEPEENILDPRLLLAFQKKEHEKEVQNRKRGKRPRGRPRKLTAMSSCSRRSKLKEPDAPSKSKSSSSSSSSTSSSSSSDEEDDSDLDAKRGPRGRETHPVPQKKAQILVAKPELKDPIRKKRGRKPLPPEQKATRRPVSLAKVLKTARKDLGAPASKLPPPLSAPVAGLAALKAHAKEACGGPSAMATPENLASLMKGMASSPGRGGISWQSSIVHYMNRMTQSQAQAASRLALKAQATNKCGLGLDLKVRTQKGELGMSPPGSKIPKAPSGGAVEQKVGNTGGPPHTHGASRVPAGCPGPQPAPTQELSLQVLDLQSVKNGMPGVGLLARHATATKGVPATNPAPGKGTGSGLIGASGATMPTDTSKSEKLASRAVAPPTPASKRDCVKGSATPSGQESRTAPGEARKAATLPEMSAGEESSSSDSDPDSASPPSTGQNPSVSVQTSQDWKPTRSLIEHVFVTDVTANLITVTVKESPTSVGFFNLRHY

[5] = target: E3 SUMO-protein ligase CBX4 (Homo sapiens, UniProt O00257); assay: Selectivity interaction (SPR) EUB0001090a CBX4
E3 SUMO-protein ligase CBX4, sequence (O00257 whole entry): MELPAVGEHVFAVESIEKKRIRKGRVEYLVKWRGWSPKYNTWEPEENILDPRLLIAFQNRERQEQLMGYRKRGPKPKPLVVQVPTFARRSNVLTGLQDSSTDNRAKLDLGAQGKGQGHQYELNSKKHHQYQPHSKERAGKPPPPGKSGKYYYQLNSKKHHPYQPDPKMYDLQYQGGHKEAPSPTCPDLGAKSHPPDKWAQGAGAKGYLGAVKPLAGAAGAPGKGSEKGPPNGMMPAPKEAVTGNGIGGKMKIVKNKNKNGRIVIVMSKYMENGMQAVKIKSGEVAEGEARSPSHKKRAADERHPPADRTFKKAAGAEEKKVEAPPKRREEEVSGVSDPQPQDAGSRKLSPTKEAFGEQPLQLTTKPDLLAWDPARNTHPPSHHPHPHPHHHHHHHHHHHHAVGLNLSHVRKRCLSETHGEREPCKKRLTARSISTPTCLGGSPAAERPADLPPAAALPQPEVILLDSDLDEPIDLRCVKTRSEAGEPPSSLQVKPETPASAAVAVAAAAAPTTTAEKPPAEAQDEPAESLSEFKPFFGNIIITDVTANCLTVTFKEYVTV

[6] = target: Chromobox protein homolog 6 (Homo sapiens, UniProt O95503); assay: Selectivity interaction (SPR) EUB0001090a CBX6
Chromobox protein homolog 6, sequence (O95503 whole entry): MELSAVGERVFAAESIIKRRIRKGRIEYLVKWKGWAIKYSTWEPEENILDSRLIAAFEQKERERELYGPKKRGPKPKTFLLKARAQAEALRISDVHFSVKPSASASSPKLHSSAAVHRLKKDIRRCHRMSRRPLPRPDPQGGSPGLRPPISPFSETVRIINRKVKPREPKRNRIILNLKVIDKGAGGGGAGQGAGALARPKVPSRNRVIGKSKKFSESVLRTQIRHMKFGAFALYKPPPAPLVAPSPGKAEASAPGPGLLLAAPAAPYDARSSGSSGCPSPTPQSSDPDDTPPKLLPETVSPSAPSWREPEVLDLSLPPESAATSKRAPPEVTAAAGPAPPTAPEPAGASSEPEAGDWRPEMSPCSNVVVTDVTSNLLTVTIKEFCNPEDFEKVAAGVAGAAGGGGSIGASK

[7] = target: Chromodomain Y-like protein 2 (Homo sapiens, UniProt Q8N8U2); assay: Selectivity interaction (SPR) EUB0001090a CDYL2
Chromodomain Y-like protein 2, sequence (Q8N8U2 whole entry): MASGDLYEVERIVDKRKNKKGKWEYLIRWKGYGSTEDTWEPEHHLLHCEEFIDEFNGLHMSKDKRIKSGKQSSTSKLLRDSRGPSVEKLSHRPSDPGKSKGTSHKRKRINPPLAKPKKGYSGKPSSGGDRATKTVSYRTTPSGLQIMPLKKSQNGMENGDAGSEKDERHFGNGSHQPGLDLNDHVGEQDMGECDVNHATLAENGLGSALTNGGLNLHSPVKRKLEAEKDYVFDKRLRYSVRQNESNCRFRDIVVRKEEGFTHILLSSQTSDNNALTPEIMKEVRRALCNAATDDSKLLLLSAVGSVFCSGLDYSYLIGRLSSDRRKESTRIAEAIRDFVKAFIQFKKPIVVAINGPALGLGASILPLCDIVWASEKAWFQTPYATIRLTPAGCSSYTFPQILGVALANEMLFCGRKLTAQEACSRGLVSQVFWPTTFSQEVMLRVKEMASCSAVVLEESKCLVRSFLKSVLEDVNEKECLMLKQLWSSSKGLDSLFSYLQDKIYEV

Caspase-5 [8] = target: T2, Caspase-5 (Homo sapiens, UniProt P51878); assay: (§1) Selectivity interaction (Enzymatic assay) EUB0002176a CASP5
T2 sequence (P51878 whole entry): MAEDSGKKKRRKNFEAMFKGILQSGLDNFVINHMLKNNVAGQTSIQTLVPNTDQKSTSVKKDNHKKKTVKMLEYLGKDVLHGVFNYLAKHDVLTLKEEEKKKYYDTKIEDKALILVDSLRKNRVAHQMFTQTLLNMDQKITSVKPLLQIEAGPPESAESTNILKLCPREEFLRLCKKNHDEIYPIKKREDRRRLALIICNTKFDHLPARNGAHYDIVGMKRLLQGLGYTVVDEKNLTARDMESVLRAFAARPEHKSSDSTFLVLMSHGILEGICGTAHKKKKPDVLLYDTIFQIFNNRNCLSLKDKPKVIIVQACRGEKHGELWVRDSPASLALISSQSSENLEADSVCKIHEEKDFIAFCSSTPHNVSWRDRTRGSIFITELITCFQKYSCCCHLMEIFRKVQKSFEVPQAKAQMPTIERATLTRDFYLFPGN

Caspase-5 [9] = target: T2, Caspase-5; assay: as §1; remark: listed apart in the source
Caspase-9 [10] = target: T3, Caspase-9 (Homo sapiens, UniProt P55211); assay: Selectivity interaction (Enzymatic assay) EUB0002177aAD CASP9
T3 sequence (P55211 whole entry): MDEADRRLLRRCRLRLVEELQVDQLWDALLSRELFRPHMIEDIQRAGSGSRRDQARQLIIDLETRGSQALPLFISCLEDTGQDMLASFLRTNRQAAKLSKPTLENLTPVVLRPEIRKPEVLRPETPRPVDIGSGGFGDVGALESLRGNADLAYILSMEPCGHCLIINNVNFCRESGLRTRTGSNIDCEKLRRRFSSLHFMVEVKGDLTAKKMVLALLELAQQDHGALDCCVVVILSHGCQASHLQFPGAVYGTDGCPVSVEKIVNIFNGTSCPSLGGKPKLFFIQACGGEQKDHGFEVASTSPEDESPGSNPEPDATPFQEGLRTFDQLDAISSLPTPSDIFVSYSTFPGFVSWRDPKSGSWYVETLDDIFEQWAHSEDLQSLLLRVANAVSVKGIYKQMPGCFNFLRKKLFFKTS

Caspase-9 [11] = target: T3, Caspase-9; assay: Selectivity interaction (Enzymatic assay) EUB0002198aAD CASP9
Caspase-14 = Caspase-14 (Homo sapiens, UniProt P31944); assay: Selectivity interaction (Enzymatic assay) EUB0002198aAD CASP14
Caspase-14, sequence (P31944 6-146 limits assumed): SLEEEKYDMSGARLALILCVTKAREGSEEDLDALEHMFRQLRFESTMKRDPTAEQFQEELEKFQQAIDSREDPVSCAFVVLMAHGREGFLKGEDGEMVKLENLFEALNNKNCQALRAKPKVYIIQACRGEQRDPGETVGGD
Caspase-14, sequence (P31944 153-242 limits assumed): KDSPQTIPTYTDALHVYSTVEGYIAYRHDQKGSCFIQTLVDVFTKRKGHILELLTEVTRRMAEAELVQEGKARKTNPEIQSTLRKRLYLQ

Caspase-10 [12] = target: T4, Caspase-10 (Homo sapiens, UniProt Q92851); assay: (§2) Selectivity interaction (Enzymatic assay) EUB0002198aAD CASP10
T4 sequence (Q92851 whole entry): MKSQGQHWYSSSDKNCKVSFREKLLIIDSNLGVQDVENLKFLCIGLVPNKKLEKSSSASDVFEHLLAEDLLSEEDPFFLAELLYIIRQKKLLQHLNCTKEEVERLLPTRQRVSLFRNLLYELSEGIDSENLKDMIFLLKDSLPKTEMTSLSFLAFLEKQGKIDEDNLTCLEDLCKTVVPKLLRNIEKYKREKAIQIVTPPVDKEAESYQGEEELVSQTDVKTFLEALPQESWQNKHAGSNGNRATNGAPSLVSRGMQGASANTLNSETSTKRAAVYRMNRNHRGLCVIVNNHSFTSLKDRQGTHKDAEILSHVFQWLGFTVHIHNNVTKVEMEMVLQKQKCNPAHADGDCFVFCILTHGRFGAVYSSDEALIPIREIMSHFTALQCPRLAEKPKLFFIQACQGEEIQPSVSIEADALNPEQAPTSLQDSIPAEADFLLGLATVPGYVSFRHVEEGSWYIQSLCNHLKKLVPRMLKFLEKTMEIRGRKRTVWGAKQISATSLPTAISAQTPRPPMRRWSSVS

Caspase-4 = Caspase-4 (Homo sapiens, UniProt P49662); assay: Selectivity interaction (Enzymatic assay) EUB0002198aAD CASP4
Caspase-4, sequence (P49662 81-270 limits assumed): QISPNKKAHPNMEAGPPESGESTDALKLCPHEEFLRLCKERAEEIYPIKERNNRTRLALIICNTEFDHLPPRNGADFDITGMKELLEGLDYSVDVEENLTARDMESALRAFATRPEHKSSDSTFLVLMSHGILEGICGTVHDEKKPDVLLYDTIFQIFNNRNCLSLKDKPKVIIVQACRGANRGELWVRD
Caspase-4, sequence (P49662 290-377 limits assumed): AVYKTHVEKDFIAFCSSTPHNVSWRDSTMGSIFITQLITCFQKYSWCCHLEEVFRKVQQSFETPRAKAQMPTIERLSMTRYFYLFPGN

Caspase-10 [13] = target: T4, Caspase-10; assay: as §2; remark: listed apart in the source
Caspase-10 [14] = target: T4, Caspase-10; assay: as §2; remark: listed apart in the source
Caspase-5 [15] = target: T2, Caspase-5; assay: Selectivity interaction (Enzymatic assay) EUB0002198aAD CASP5

NC(=O)c1cccc(NC(=O)CCC(=O)NCCc2cn(CCNS(=O)(=O)c3cccc(C(=O)O)c3)nn2)c1 showed an IC50 [1] of 11700 nM and an IC50 [2] of 9040 nM.

COC(=O)[C@H](CO)NC(=O)[C@H](CCCCN(C)C1CC2CCC1C2)NC(=O)[C@H](CC(C)C)NC(=O)[C@H](C)NC(=O)[C@H](Cc1ccccc1)NC(=O)c1ccc(C(C)(C)C)cc1 (some centres not stated) ({Benzoyl(4-tBu)}-FAL[Lys(Me,2-norbornyl)]S-OMe) showed a Kd [3] of 458 nM, a Kd [4] of 1750 nM and a Kd [5] of 26.7 nM. For the same molecule, the Kd [6] was 543 nM and the Kd [7] was 415 nM.

Work on CC(=O)N[C@@H](Cc1ccccc1)C(=O)N[C@@H](CC(C)C)C(=O)N[C@H](C(=O)N[C@@H](CC(=O)O)C(=O)CCl)[C@@H](C)O (Ac-FLTD-CH2Cl) yielded an IC50 (Caspase-5 [8]) of 329 nM and an IC50 (Caspase-5 [9]) of 329 nM.

Molecule CC[C@H](C)[C@H](NC(C)=O)C(=O)N[C@@H](CCC(=O)O)C(=O)N[C@H](C(=O)N[C@H](C=O)CC(=O)O)[C@@H](C)O (Ac-IETD-aldehyde) has an IC50 (Caspase-9 [10]) of 35 nM.

CC(=O)N[C@@H](CC(C)C)C(=O)N[C@@H](CCC(=O)O)C(=O)N[C@@H](Cc1cnc[nH]1)C(=O)N[C@H](C=O)CC(=O)O (Ac-LEHD-aldehyde) was tested, and the IC50 (Caspase-9 [11]) was 49.2 nM, the IC50 (Caspase-14) was 134 nM and the IC50 (Caspase-10 [12]) was 240 nM. It also gave an IC50 (Caspase-4) of 81.7 nM, an IC50 (Caspase-10 [13]) of 40.4 nM and an IC50 (Caspase-10 [14]) of 240 nM. It also gave an IC50 (Caspase-5 [15]) of 21.3 nM.
